Assay results published in patent US20060013775A1, “Use of ppar activators for the treatment of pulmonary fibrosis” (priority 2001, published 2006).

Tested on: Primary human lung fibroblasts
Test: α-SMA positive cell (myofibroblast) count in primary lung fibroblast strains from ILD patients
Assay type: cell-based
Conditions: for percentage of α-SMA cells (α-SMA positive cells as a percentage of total cells): pioglitazone 3 μM, 3 days; for percentage of α-SMA cells: 10 days, vehicle 16.5 (SEM 2.7), n=4
From the text: Primary human lung fibroblasts were derived from patients with ILD (Idiopathic Pulmonary Fibrosis or Chronic Hypersensitivity Pneumonitis). Patients had clinical, functional and radiologic features which fulfil the diagnostic criteria for an ILD. Briefly, they had progressive dyspnea, bilateral reticulonodular images on chest roentgenogram, restrictive lung functional impairment, with decreased lung volumes and compliance, and hypoxemia at rest that worsened with exercise. The methods used to isolate and culture the lung fibroblasts and count cells are described in Wang et al, Am. J. Physiol. Lung 277:L1158-1164 (1999). In brief, lung fibroblasts were isolated by trypsin digestion of tissues minced to 1 mm^2 fragments. Fibroblast/myofibroblast strains were established in Dulbecco's modified Eagle's medium (or in Hams F-12 medium) supplemented with 10% fetal calf serum, 200 U/ml penicillin, and […] streptomycin, and were cultured in 24-well plates. All cells were cultured at 37° C. in 95% air-5% carbon dioxide. For these experiments, 2 strains were used. In order to quantify myofibroblast numbers, the myofibroblast marker alpha-smooth muscle actin (α-SMA) was measured. […] In a first experiment, the 2 strains were grown to 70-80% confluence. The cells were exposed to pioglitazone at 3 μM or drug vehicle for 3 days, after which the number of α-SMA positive cells was quantified (sample size 24) as a percentage of total cells. For one strain, the percentage of α-SMA cells was 27 (standard error mean 3.7) with control and 17 (standard error mean 2.5) in the presence of 3 μM pioglitazone. The drug effect was statistically significant (P≦0.01 Student-Newman-Keuls Multiple Comparisons Test). For the second strain, the respective values were 30.6 (standard error of mean 2.7) and 26 (standard error of mean 2.9) although the difference was not statistically significant. In a second experiment, the effect of pioglitazone on the second strain was studied again, but the exposure time was increased to 10 days and the effects of lower and higher concentrations (1 μM and 10 μM) were studied. After 10 days treatment with vehicle, the percentage of α-SMA cells was 16.5 (standard error of mean 2.7); after 10 days treatment with pioglitazone at 1 μM the percentage was 15.3 (standard error of mean 1.8); and after treatment with pioglitazone at 10 μM the percentage of α-SMA cells was 7.4 (standard error of mean 1.8) (all n=4). The reduction in α-SMA cells by 10 μM pioglitazone was significant (P≦0.05 Dunnett Multiple Comparisons Test).

CCc1ccc(CCOc2ccc(CC3SC(=O)NC3=O)cc2)nc1 (stereo not shown) [pioglitazone]
percentage of α-SMA cells (α-SMA positive cells as a percentage of total cells) (first strain, control 27 (SEM 3.7), statistically significant P≦0.01, sample size 24): 17 (standard error mean 2.5) percentage | percentage of α-SMA cells (second strain, pioglitazone 1 μM): 15.3 (standard error of mean 1.8) percentage | percentage of α-SMA cells (α-SMA positive cells as a percentage of total cells) (second strain, control 30.6 (SEM 2.7), difference not statistically significant): 26 (standard error of mean 2.9) percentage | percentage of α-SMA cells (second strain, pioglitazone 10 μM, significant P≦0.05): 7.4 (standard error of mean 1.8) percentage
